# According to ChEMBL document CHEMBL1255302, “Genetic structures at the origin of acquisition of the beta-lactamase bla KPC gene” (2008):
# Assays:
# Type in all cases: functional
# Escherichia coli [1] = test: Antibacterial activity against Escherichia coli DH10B expressing blaKPC gene by Etest method in presence of beta-lactamase inhibitor clavulanic acid
# Klebsiella pneumoniae [2] = test: Antibacterial activity against Klebsiella pneumoniae KN2303 by Etest method in presence of beta-lactamase inhibitor clavulanic acid
# Escherichia coli [3] = test: Antibacterial activity against Escherichia coli harboring pCOL plasmid expressing blaKPC gene by Etest method
# Escherichia coli [4] = test: Antibacterial activity against Escherichia coli harboring pBC633 plasmid expressing blaKPC gene by Etest method
# Escherichia coli [5] = test: Antibacterial activity against Escherichia coli harboring pRYC plasmid expressing blaKPC gene by Etest method in presence of beta-lactamase inhibitor clavulanic acid
# Pseudomonas aeruginosa [6] = test: Antibacterial activity against Pseudomonas aeruginosa 2404 plasmid by Etest method in presence of beta-lactamase inhibitor clavulanic acid
# Pseudomonas aeruginosa [7] = test: Antibacterial activity against Pseudomonas aeruginosa KG2505 by Etest method in presence of beta-lactamase inhibitor clavulanic acid
# Escherichia coli [8] = test: Antibacterial activity against Escherichia coli harboring pNGR plasmid expressing blaKPC gene by Etest method in presence of beta-lactamase inhibitor clavulanic acid
# Pseudomonas aeruginosa [9] = test: Antibacterial activity against Pseudomonas aeruginosa KG2505 harboring pCOL plasmid by Etest method
# Escherichia coli [10] = test: Antibacterial activity against Escherichia coli DH10B expressing blaKPC gene by Etest method
# Klebsiella pneumoniae [11] = test: Antibacterial activity against Klebsiella pneumoniae KN2303 by Etest method
# Pseudomonas aeruginosa [12] = test: Antibacterial activity against Pseudomonas aeruginosa 2404 plasmid by Etest method
# Pseudomonas aeruginosa [13] = test: Antibacterial activity against Pseudomonas aeruginosa KG2505 by Etest method
# Klebsiella pneumoniae [14] = test: Antibacterial activity against Klebsiella pneumoniae 633 by Etest method in presence of beta-lactamase inhibitor clavulanic acid
# Escherichia coli [15] = test: Antibacterial activity against Escherichia coli harboring pBC2303 expressing blaKPC gene plasmid by Etest method in presence of beta-lactamase inhibitor clavulanic acid
# Klebsiella pneumoniae [16] = test: Antibacterial activity against Klebsiella pneumoniae YC by Etest method
# Klebsiella pneumoniae [17] = test: Antibacterial activity against Klebsiella pneumoniae 633 by Etest method
# Klebsiella pneumoniae [18] = test: Antibacterial activity against Klebsiella pneumoniae GR by Etest method
# Klebsiella pneumoniae [19] = test: Antibacterial activity against Klebsiella pneumoniae YC by Etest method in presence of beta-lactamase inhibitor clavulanic acid
# Klebsiella pneumoniae [20] = test: Antibacterial activity against Klebsiella pneumoniae GR by Etest method in presence of beta-lactamase inhibitor clavulanic acid
# Escherichia coli [21] = test: Antibacterial activity against Escherichia coli harboring pNYC plasmid expressing blaKPC gene by Etest method
# Escherichia coli [22] = test: Antibacterial activity against Escherichia coli harboring pNGR plasmid expressing blaKPC gene by Etest method
# Escherichia coli [23] = test: Antibacterial activity against Escherichia coli harboring pBC2303 expressing blaKPC gene plasmid by Etest method
# Escherichia coli [24] = test: Antibacterial activity against Escherichia coli harboring pBC633 plasmid expressing blaKPC gene by Etest method in presence of beta-lactamase inhibitor clavulanic acid
# Escherichia coli [25] = test: Antibacterial activity against Escherichia coli harboring pRYC plasmid expressing blaKPC gene by Etest method
# Escherichia coli [26] = test: Antibacterial activity against Escherichia coli harboring pNYC plasmid expressing blaKPC gene by Etest method in presence of beta-lactamase inhibitor clavulanic acid
# Escherichia coli [27] = test: Antibacterial activity against Escherichia coli harboring pCOL plasmid expressing blaKPC gene by Etest method in presence of beta-lactamase inhibitor clavulanic acid
# Pseudomonas aeruginosa [28] = test: Antibacterial activity against Pseudomonas aeruginosa KG2505 harboring pCOL plasmid by Etest method in presence of beta-lactamase inhibitor clavulanic acid
SMILES,MIC (Escherichia coli [1]) [µg/mL],MIC (Klebsiella pneumoniae [2]) [µg/mL],MIC (Escherichia coli [3]) [µg/mL],MIC (Escherichia coli [4]) [µg/mL],MIC (Escherichia coli [5]) [µg/mL],MIC (Pseudomonas aeruginosa [6]) [µg/mL],MIC (Pseudomonas aeruginosa [7]) [µg/mL],MIC (Pseudomonas aeruginosa [9]) [µg/mL],MIC (Escherichia coli [10]) [µg/mL],MIC (Klebsiella pneumoniae [11]) [µg/mL],MIC (Pseudomonas aeruginosa [12]) [µg/mL],MIC (Pseudomonas aeruginosa [13]) [µg/mL],MIC (Klebsiella pneumoniae [14]) [µg/mL],MIC (Klebsiella pneumoniae [16]) [µg/mL],MIC (Klebsiella pneumoniae [17]) [µg/mL],MIC (Klebsiella pneumoniae [18]) [µg/mL],MIC (Escherichia coli [21]) [µg/mL],MIC (Escherichia coli [22]) [µg/mL],MIC (Escherichia coli [23]) [µg/mL],MIC (Escherichia coli [25]) [µg/mL],further results
C[C@@H](O)[C@H]1C(=O)N2C(C(=O)O)=C(S[C@@H]3CN[C@H](C(=O)Nc4cccc(C(=O)O)c4)C3)[C@H](C)[C@H]12,0.05,> 32,0.004,2,1.5,> 32,0.03,> 32,0.25,> 32,> 32,0.25,8,24,> 32,12,0.5,0.38,0.25,4,MIC (Escherichia coli [8]): 0.01 µg/mL; MIC (Escherichia coli [15]): 0.02 µg/mL; MIC (Klebsiella pneumoniae [19]): 2 µg/mL; MIC (Klebsiella pneumoniae [20]): 6 µg/mL; MIC (Escherichia coli [24]): 0.19 µg/mL; MIC (Escherichia coli [26]): 0.05 µg/mL; MIC (Escherichia coli [27]): 0.002 µg/mL; MIC (Pseudomonas aeruginosa [28]): 2 µg/mL
CO/N=C(\C(=O)N[C@@H]1C(=O)N2C(C(=O)[O-])=C(C[N+]3(C)CCCC3)CS[C@H]12)c1csc(N)n1,–,–,0.02,4,–,–,–,> 32,1,> 32,> 32,0.5,–,–,> 32,> 32,1,1.5,3,> 32,–
CC1(C)S[C@@H]2[C@H](NC(=O)[C@H](N)c3ccc(O)cc3)C(=O)N2[C@H]1C(=O)O [AMOXICILLIN],24,> 256,2,> 256,64,> 256,0.25,> 256,> 256,> 256,> 256,0.25,32,> 256,> 256,> 256,> 256,> 256,> 256,> 256,MIC (Escherichia coli [8]): 24 µg/mL; MIC (Escherichia coli [15]): 24 µg/mL; MIC (Klebsiella pneumoniae [19]): 32 µg/mL; MIC (Klebsiella pneumoniae [20]): 48 µg/mL; MIC (Escherichia coli [24]): 32 µg/mL; MIC (Escherichia coli [26]): 32 µg/mL; MIC (Escherichia coli [27]): 2 µg/mL; MIC (Pseudomonas aeruginosa [28]): > 256 µg/mL
C[C@H]1[C@H](NC(=O)/C(=N\OC(C)(C)C(=O)O)c2csc(N)n2)C(=O)N1S(=O)(=O)O [AZTREONAM],–,–,–,–,–,–,–,–,24,–,–,–,–,–,–,–,16,16,192,–,–
CO[C@@]1(NC(=O)Cc2cccs2)C(=O)N2C(C(=O)O)=C(COC(N)=O)CS[C@@H]21 [CEFOXITIN],–,–,2,> 32,–,–,–,> 32,2,> 32,> 64,0.25,–,> 32,> 32,> 32,2,4,8,> 32,–
CC(C)(O/N=C(\C(=O)N[C@@H]1C(=O)N2C(C(=O)[O-])=C(C[n+]3ccccc3)CS[C@H]12)c1csc(N)n1)C(=O)O [CEFTAZIDIME],–,–,0.19,32,–,–,–,> 256,8,> 256,> 256,1,–,64,> 256,> 256,4,4,256,> 256,–
CC(=O)OCC1=C(C(=O)O)N2C(=O)[C@@H](NC(=O)Cc3cccs3)[C@H]2SC1 [CEPHALOTHIN],–,–,2,> 256,–,–,–,> 256,256,> 256,> 256,2,–,> 256,> 256,> 256,> 256,> 256,> 256,> 256,–
C[C@@H](O)[C@H]1C(=O)N2C(C(=O)O)=C(SCCNC=N)C[C@H]12 [IMIPENEM ANHYDROUS],0.38,> 32,0.19,6,3,> 32,0.19,> 32,1.5,> 32,> 32,0.19,0.75,4,> 32,12,8,1.5,1,12,MIC (Klebsiella pneumoniae [19]): 2 µg/mL; MIC (Klebsiella pneumoniae [20]): 0.75 µg/mL; MIC (Escherichia coli [24]): 0.75 µg/mL; MIC (Escherichia coli [26]): 2 µg/mL; MIC (Escherichia coli [27]): 0.1 µg/mL; MIC (Pseudomonas aeruginosa [28]): 2 µg/mL
CCN1CCN(C(=O)N[C@@H](C(=O)N[C@@H]2C(=O)N3[C@@H]2SC(C)(C)[C@@H]3C(=O)O)c2ccccc2)C(=O)C1=O [PIPERACILLIN],–,–,1.5,> 256,–,–,–,> 256,> 256,> 256,> 256,0.38,–,> 256,> 256,> 256,> 256,128,> 256,> 256,–
